Assay results reported in patent publication US20260158139A1, “CARD9 VARIANT POLYPEPTIDE AND ANTIBODIES DIRECTED THERETO” (The Broad Institute, Inc., priority 2023, published 2026).

Molecular target: T1, PKCδ (Mus musculus, UniProt P28867)
T1 construct: endogenous in cells; host or cells: mouse bone-marrow-derived dendritic cells (BMDCs) from WT mice
Assay: CARD9 immunoprecipitation and western blot for pS104-CARD9 in BMDCs stimulated with HKCA
Assay type: cell-based
Details: 10 uM, added 1 h before stimulation; BMDCs from WT mice stimulated with HKCA (MOI 1:10)
Protocol: FIGS. 3A-3H provide graphs and pictures showing that CARD9 R101 functions as a signaling switch activated by S104 phosphorylation. FIG. 3A, BMDCs expressing Cas9 were transduced with guides for the corresponding genes on day 2 and selected with puromycin. On day 9 cells were stimulated with 100 ug/ml WGP O/N and IL-6 levels in supernatant were measured with ELISA. FIG. 3B, BMDCs expressing Cas9 were transduced with guides for the corresponding genes on day 2 and selected with puromycin. On day 9 cells were stimulated with HKCA (MOI 1:10), HKTR (1:10) or LPS (10 ng/ml) for 30 min. p65 nuclear translocation was measured using fluorescence imaging. The bars in the graph are shown in groups of 6 (from left to right, EGFP, EGFP, PAK2, PAK2, PKCd, PKCd) for each different condition (i.e., untreated, HKCA, HKTR, LPS). FIG. 3C, CARD9 FL, CARD9 R101C or CARD9 S104N were overexpressed in HEK 293T cells. […] Samples were analyzed by WB with the indicated antibodies. […] Samples were analyzed by WB with the indicated antibodies. FIG. 3F, Normalized fluorescence polarization representing filament formation between different CARD9 2-152 variants and Bcl10, average of quadruplicates. […] FIG. 3H, Expression of CARD9 in the lysates from panel g determined by western blot (WB) with the indicated antibodies. […]

T1 sequence (P28867 whole entry): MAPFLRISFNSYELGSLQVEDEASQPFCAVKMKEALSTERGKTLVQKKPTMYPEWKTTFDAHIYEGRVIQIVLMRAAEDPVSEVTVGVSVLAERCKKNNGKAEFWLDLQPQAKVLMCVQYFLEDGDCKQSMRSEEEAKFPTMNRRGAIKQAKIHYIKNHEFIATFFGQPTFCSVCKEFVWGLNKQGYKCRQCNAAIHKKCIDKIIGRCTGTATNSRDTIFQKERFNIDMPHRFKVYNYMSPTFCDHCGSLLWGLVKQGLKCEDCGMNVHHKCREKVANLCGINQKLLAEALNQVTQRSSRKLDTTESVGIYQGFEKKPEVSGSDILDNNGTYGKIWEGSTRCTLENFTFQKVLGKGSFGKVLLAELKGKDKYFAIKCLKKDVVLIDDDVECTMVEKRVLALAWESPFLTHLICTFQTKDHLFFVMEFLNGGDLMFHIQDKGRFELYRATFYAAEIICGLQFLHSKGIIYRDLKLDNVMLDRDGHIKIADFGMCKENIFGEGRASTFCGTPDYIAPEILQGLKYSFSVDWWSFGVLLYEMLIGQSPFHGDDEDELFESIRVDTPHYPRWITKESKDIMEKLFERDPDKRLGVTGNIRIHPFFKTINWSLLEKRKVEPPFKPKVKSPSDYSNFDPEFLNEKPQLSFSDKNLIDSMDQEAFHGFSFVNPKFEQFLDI

In the case of CN1CCN(c2nc(C3=C(c4c[nH]c5ccccc45)C(=O)NC3=O)c3ccccc3n2)CC1 [Sotrastaurin], the “CARD9 S104 phosphorylation” value is reported as “inhibition of CARD9 S104 phosphorylation”.
